Here are results for 6 compounds from PubChem BioAssay (NCI).

Each structure is given as a SMILES string.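 The compound was tested at five concentrations on cells cultured in 96-well plates, with a 48-hour exposure period. GI50: concentration for 50% inhibition of growth. At the TGI there is no net growth.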 A value given as a limit tells only on which side of the number the result lay.

Some test systems named below: SK-OV-3 ovarian; MDA-MB-231 breast; HCT-15 colon; HCT-116 colon; OVCAR-8 ovarian; SF-295 CNS; LOX IMVI melanoma; UO-31 renal; EKVX NSCLC; OVCAR-3 ovarian.
What all share (experiment): growth of human tumour cells (NCI), 48 h

Take `C=CC1C(CC2OC(CO)C(O)C(O)C2O)OC=C2C(=O)OCCC21O` (stereo not given): the GI50 is 46.6 µM with SK-OV-3 ovarian; 40.9 µM in the experiment on MDA-MB-231 breast; 19.5 µM in the experiment on HCT-15 colon; 16.2 µM in the experiment on HCT-116 colon; 16.7 µM in the experiment on OVCAR-8 ovarian; 23.5 µM in the experiment with SF-295 CNS. Further, the GI50 with LOX IMVI melanoma was 8.37 µM; in the experiment with UO-31 renal it was 16.4 µM; with EKVX NSCLC, 39.8 µM; with OVCAR-3 ovarian, 12.4 µM. Besides, the TGI in the experiment on SK-OV-3 ovarian was above 100 µM; in the experiment with MDA-MB-231 breast, 99.6 µM; in the experiment with HCT-15 colon, 49.9 µM; in the experiment on HCT-116 colon it was 32.1 µM; with OVCAR-8 ovarian it was 62.4 µM; in the experiment with SF-295 CNS, 62.5 µM. Besides, the TGI was 23.4 µM in the experiment with LOX IMVI melanoma, above 100 µM with UO-31 renal, above 100 µM in the experiment on EKVX NSCLC and 27.6 µM in the experiment on OVCAR-3 ovarian.

Take `COc1cc(Cl)c(CC(=O)c2c[nH]c3ccccc23)cc1OC`: the TGI is 40 µM with SK-OV-3 ovarian; above 52.6 µM in the experiment on MDA-MB-231 breast; above 100 µM in the experiment on HCT-15 colon; above 100 µM in the experiment on HCT-116 colon; above 100 µM with OVCAR-8 ovarian; above 68.3 µM with SF-295 CNS. For the same compound, the TGI in the experiment with LOX IMVI melanoma is above 100 µM; in the experiment on UO-31 renal it was above 43.3 µM; with EKVX NSCLC, above 100 µM; with OVCAR-3 ovarian, above 100 µM.

`COc1cc(S(=O)(=O)Nc2nc(-c3ccc(N4C(=O)C(C)SC4c4ccccc4O)cc3)cs2)ccc1Cl` (stereo not given): the GI50 in the experiment with SK-OV-3 ovarian was 50.6 µM; with MDA-MB-231 breast, 32.6 µM; with HCT-15 colon, 37.3 µM; with HCT-116 colon it was 28.6 µM; with OVCAR-8 ovarian it was 42.2 µM; in the experiment with SF-295 CNS, 31.8 µM. The GI50 with LOX IMVI melanoma is 52.1 µM; with UO-31 renal, 37.2 µM; with EKVX NSCLC, 42.8 µM; in the experiment on OVCAR-3 ovarian it was 35.6 µM. In addition, the TGI with SK-OV-3 ovarian, in the experiment on MDA-MB-231 breast, with HCT-15 colon, in the experiment on HCT-116 colon, in the experiment with OVCAR-8 ovarian and with SF-295 CNS was above 100 µM in each case. Also, the TGI in the experiment with LOX IMVI melanoma, in the experiment on UO-31 renal, in the experiment on EKVX NSCLC and in the experiment on OVCAR-3 ovarian was above 100 µM each time.

For `O=c1cc(-c2ccccc2)[nH]c2c1CCCC2`, the GI50 in the experiment with SK-OV-3 ovarian was 5.11 µM; with MDA-MB-231 breast it was 6.67 µM; with HCT-15 colon it was 2.01 µM; with HCT-116 colon, 3.34 µM; with OVCAR-8 ovarian, 4.58 µM; with SF-295 CNS, 1.43 µM. Further, the GI50 is 5.88 µM in the experiment on LOX IMVI melanoma, 5.49 µM in the experiment on UO-31 renal, 5.6 µM with EKVX NSCLC and 1.81 µM in the experiment with OVCAR-3 ovarian. The TGI was above 100 µM with SK-OV-3 ovarian; above 100 µM in the experiment with MDA-MB-231 breast; above 100 µM with HCT-15 colon; above 100 µM in the experiment on HCT-116 colon; above 100 µM in the experiment on OVCAR-8 ovarian; 7.61 µM with SF-295 CNS. In addition, the TGI is above 100 µM with LOX IMVI melanoma, above 100 µM in the experiment with UO-31 renal, above 100 µM in the experiment with EKVX NSCLC and 5.02 µM in the experiment with OVCAR-3 ovarian.

As for `O=C1NC(=O)C(c2cccc(Cl)c2)=C1Nc1ccc(Cl)c(C(=O)O)c1`, the GI50 in the experiment on SK-OV-3 ovarian, in the experiment with MDA-MB-231 breast, in the experiment on HCT-15 colon, with HCT-116 colon, in the experiment with OVCAR-8 ovarian and in the experiment on SF-295 CNS was above 25 µM each time. In addition, the GI50 with LOX IMVI melanoma, with UO-31 renal, in the experiment with EKVX NSCLC and with OVCAR-3 ovarian was above 25 µM each time. Further, the TGI with SK-OV-3 ovarian, with MDA-MB-231 breast, in the experiment on HCT-15 colon, in the experiment on HCT-116 colon, with OVCAR-8 ovarian and in the experiment on SF-295 CNS was above 25 µM in each case. The TGI with LOX IMVI melanoma, in the experiment on UO-31 renal, in the experiment on EKVX NSCLC and with OVCAR-3 ovarian was above 25 µM throughout.

Regarding `COc1ccc(C2NN=C3c4ccccc4CCC32)cc1` (stereo not given), the GI50 in the experiment with SK-OV-3 ovarian was 20.4 µM; with MDA-MB-231 breast, 17.8 µM; in the experiment with HCT-15 colon, 3.7 µM; in the experiment on HCT-116 colon, 6.85 µM; with OVCAR-8 ovarian it was 22.1 µM; with SF-295 CNS it was 2.48 µM. Besides, the GI50 with LOX IMVI melanoma is 8.25 µM; in the experiment on UO-31 renal it was 24.1 µM; in the experiment on EKVX NSCLC, 1.4 µM; with OVCAR-3 ovarian, 3.38 µM. For the same compound, the TGI was above 100 µM with SK-OV-3 ovarian; above 100 µM in the experiment with MDA-MB-231 breast; above 100 µM with HCT-15 colon; 30.2 µM in the experiment with HCT-116 colon; above 100 µM in the experiment on OVCAR-8 ovarian; 13.2 µM with SF-295 CNS. Moreover, the TGI was 33.5 µM in the experiment on LOX IMVI melanoma, above 100 µM with UO-31 renal, 29.3 µM with EKVX NSCLC and 14.9 µM with OVCAR-3 ovarian.
